Test results taken from ChEMBL document CHEMBL5346921, “Discovery of novel benzamide derivatives bearing benzamidophenyl and phenylacetamidophenyl scaffolds as potential antitumor agents via targeting PARP-1” (Eur J Med Chem, 2023).

System: HCT-116
Test: Induction of cell cycle arrest in human HCT-116 cells assessed as accumulation of cells at G0/G1 phase at 7.5 uM incubated for 72 hrs by PI staining based flow cytometry (reference value: 57.2%)
Type: functional

NC(=O)c1ccccc1OCc1cccc(NC(=O)c2ccc(Br)cc2)c1
Activity: 34.4%
